The test system of one series is rhamnolipid. Put plainly: Rhamnolipid measurement (anthrone). As to conditions: 15 μM. It is filed as cell-based, Pseudomonas aeruginosa. On the procedure:
To quantify the secreted virulence factors, overnight P. aeruginosa PAO1 was diluted in fresh M9 medium and cultured to a final OD600 value of 0.15. Then Au1 or auranofin were added into culture with indicated concentrations. After 24 h incubation at 37°C, the bacterial supernatants were collected by centrifugation at 4,000 g for 10 min at 4°C and filtered using a 0.22 μm syringe filter (Millipore). The secreted virulence factors in the supernatant were quantified by the methods described below.
For rhamnolipid measurement, rhamnolipid was extracted from the supernatant with a mixture of chloroform and methanol (v:v = 2:1). The organic solvent phase was then evaporated to dryness and 100 μL methanol was added to dissolve the extracted rhamnolipid. Then 200 μL of pre-cooled anthrone solution (dissolving 2 g of anthrone in 1 L of concentrated H2SO4) was added into 20 μL extracted rhamnolipid sample and heat at 80°C for 30min. The rhamnolipid concentration was determined by measurement the absorbance at 630 nm.

The subject of series [1] is Staphylococcus aureus Newman. The experiment in a line: MIC by standard broth dilution. As to conditions: Table S1. It is filed as cell-based. As to the method:
(§1) Pseudomonas aeruginosa strain PAO1 (P. aeruginosa) was grown in M9 minimal medium (1.0 g/L NH4Cl, 0.5 g/L NaCl, 6.0 g/L Na2HPO4, 3.0 g/L KH2PO4) supplemented with 1.0 mM MgSO4, 1.0 mM ZnSO4, 0.2 mM CaCl2, 0.4% (w/v) glucose and 0.2% (w/v) casein hydrolysate. Gram-negative Escherichia coli strain K-12 (E. coli) and Burkholderia cepacia J2315 (B. cepacia) were cultured in Luria-Bertani (LB) medium (5 g/L yeast extract, 10 g/L tryptone, 10 g/L sodium chloride). The Gram-positive Staphylococcus aureus strain Newman (S. aureus) was grown in Tryptic Soy Broth (TSB) medium (17 g/L Tryptone, 3 g/L Phytone, 5 g/L sodium chloride, 2.5 g/L dipotassium phosphate and glucose 2.5 g/L).
(§2) The minimal inhibitory concentration (MIC) values of the gallium compounds were determined using a standard broth dilution method as described previously ([Wiegand et al., 2008]). In brief, the compounds were two-fold serially diluted to concentrations from 400 to 1.56 μM. Approximately 50 μL of the compound solution was added to a 96-well microtiter plate and mixed with 50 μL of bacteria culture in log phase (10^6 CFU/ml). The bacterial culture was further incubated at 37°C for 22–24 h. The OD600 values for each well was recorded on a microplate reader. The MICs value was defined as the lowest compound concentration that inhibited 95% of the bacterial growth.
On the technique in general: Broth dilution looks for growth in wells or tubes with falling amounts of substance.

Series [2] deals with Pseudomonas aeruginosa strain PAO1. Put plainly: MIC by standard broth dilution. It is filed as cell-based. On the procedure:
as §1, §2

Another series concerns Escherichia coli MG16552. The experiment in a line: MIC by standard broth dilution. Type of series: cell-based. As to conditions: Table S1. On the procedure:
as §1, §2

Series [3] has as its system Burkholderia cepacia J2315. The experiment in a line: MIC by standard broth dilution. It is filed as cell-based. As to conditions: Table S1. On the procedure: as §1, §2
The test system of series [4] is P. aeruginosa. The experiment in a line: Bacterial membrane permeability, propidium iodide flow cytometry. Type of series: cell-based, Pseudomonas aeruginosa. As to conditions: 30 min, PI staining. On the procedure: Overnight P. aeruginosa culture was diluted 1:100 with fresh M9 medium and grown to early-mid exponential phase (OD600 = 0.4–0.6). […] Then the bacteria were incubated with propidium iodide (PI), a dye that is excluded from cells with impermeable membrane. The CytoFLEX flow cytometry (Beckman Coulter) was used to measure the bacterial fluorescent intensities and the data was analyzed using CytExpert 2.4 software. For the time-course detection of the bacterial permeability induced by Au1 or auranofin, P. aeruginosa in early-mid exponential phase (OD600 = 0.2) was incubated with PI dye on a 96-well plate. Au1 or auranofin was added to a final concentration of 50 μM. The fluorescence signal (561 nm excitation, 590 nm emission) and OD600 value were recorded on Cytation5 microplate reader. Each experiment was performed in triplicates.
Background: Flow cytometry measures light scatter and fluorescence of single cells or particles in a stream.

The test system of a further series is lung carcinoma A549 cell. Put plainly: MTT cytotoxicity assay. Type of series: cell-based, Human. As to conditions: 48 h. As to the method:
The cytotoxicity of gold compounds to mammalian cells was measured using the 3-(4, 5-dimethylthiazol-2-yl)-2, 5-diphenyltetrazolium bromide (MTT) assay. Human hepatocyte L-O2 cell, and lung carcinoma A549 cell were cultured in Corning 96 well microplates (10^4 cells per well) at 37°C for 18 h. Then the cells were incubated with gradient concentrations of gold compounds at 37°C for another 48 h. After the treatment, cell culture media were removed and the plates were wash with PBS for three times. And 90 μL fresh media and 10 μL 5 mg/ml MTT solution were added to each well and further incubated at 37°C for 4 h. Subsequently, the media were removed from the wells and 150 μL DMSO was added into each well to dissolve the formazan crystals. The absorbance at 490 nm of each well was measured with a micro-plate reader. The experiments were carried out in triplicates.

Series [5] deals with P. aeruginosa. Put plainly: Bacterial growth curves. As to conditions: 25 μM. It is filed as cell-based, Pseudomonas aeruginosa. As to the method:
as §1

The next series has as its system P. aeruginosa PAO1. The experiment in a line: Mouse skin wound infection model. It is filed as in vivo. On the procedure:
Six-week-old female BALB/c mice were used for animal experiments to evaluate the healing effect of infected wounds in vivo. Briefly, mouse backs were cut to generate a circular wound (diameter 0.6 cm) with a hole punch and the wound was infiltrated using a medical cotton swab with P. aureginosa (overnight culture, OD600 = 0.3). The mice were randomly divided into three groups, including PBS, auranofin, and Au-1 groups (n = 5 in each group). The drugs were dissolved in DMSO and diluted with glycerol to a final concentration of 50 μM. After the bacterial fluid was dry, about 20 μL of the drug was added to the wound. Body weights and wound photography was recorded on days 0, 1, 3, 5, and 8. And on the 8th day, the mice were euthanized by chloral hydrate, the infectious tissues in all groups were collected and cultured into the LB plate for colony counting. The skin tissues were also fixed by paraformaldehyde solution (4%) for H&E, Gram, and Masson’s trichrome staining.
The above results promoted us to further investigate whether the Au1 compound was also efficacious in an in vivo animal infection model. To this end, we used a mouse wound infection model to assess the anti-P. aeruginosa efficacy of Au1 as described previously ([Liao et al., 2017b]). In brief, a circular wound with a diameter of 6 mm was created on the flank of mice, and approximately 5 × 10^8 CFU of P. aeruginosa PAO1 were dipped onto the wound by medical cotton swab to induce infection. Treatment is administered on the 1st day with auranofin or Au1 compound (50 μM, 20 μL) was applied to the wounds. The wound sizes and mice weights were recorded each day. On the 8th day, the infection sites were excised and part of the tissues was fixed in 4% paraformaldehyde and embedded in paraffin. Four-micrometer sections were cut, stained with Gram, H&E, and Masson’s trichrome stain. The remained tissues were homogenized and serially diluted for CFU quantification (Figure 6A).

In series [6] the test system is P. aeruginosa. The experiment in a line: Drug resistance development assay (serial passage). Type of series: cell-based, Pseudomonas aeruginosa. As to conditions: over 14 days. On the procedure: Development of resistance to the Au1 compound and the antibiotics (ciprofloxacin and tobramycin) were assessed as described by [Habets and Brockhurst (2012)]. The MIC assay was performed on the first day as described above. […] Thereafter, a new passage MIC measurement assay was prepared using diluted bacterial cells grown at 0.5-fold MIC suspension. This was repeated for 14 passages and the MIC values for Au1, ciprofloxacin and tobramycin were recorded for each passage.

[7] abbreviates: Pseudomonas aeruginosa PAO1, Table S1, read-out: MIC.

In brackets after ≈: the same amount, converted by molar mass. Like-named read-outs stand apart in the source and are kept apart here. Where only a bound is given, the exact number is not on record here.

As a reminder, the MIC is the lowest concentration found to suppress growth. Broadly, the IC50 is the concentration needed to halve the response being measured. As for `CC(=O)OC[C@H]1O[C@@H]([S-])[C@H](OC(C)=O)[C@@H](OC(C)=O)[C@@H]1OC(C)=O.CCP(CC)CC.[Au+]` [Au9, auranofin], the synthesis of rhamnolipid result with rhamnolipid was “significantly suppress”. Moreover, the MIC in series [1] is under 1.56 µM; in series [2] (P. aeruginosa PAO1, lowest concentration inhibiting 95% of growth, 22–24 h, Table 1, listed as auranofin) it was “higher than 400 μM”; in [2] (P. aeruginosa PAO1, lowest concentration inhibiting 95% of growth, 22–24 h, Table 1, read-out: MIC), over 400 µM; in series [2] (setting [7]), over 100 µM; in the series with Escherichia coli MG16552, over 100 µM; in [3] it was over 100 µM. Also, the “bacterial fluorescence signal compared with the control group” value with P. aeruginosa [4] (50 μM) is listed as “did not significantly affect”. In the series with lung carcinoma A549 cell, this molecule registered a 50% inhibitory concentration (IC50) of 2800 ± 400 nM. For the same molecule, the “impact on the bacterial growth” value with P. aeruginosa [5] is “little impact”. For the same molecule, the “toxicity to the mice (mice weights)” value in the series with P. aeruginosa PAO1 (50 μM, 20 μL on wound, 8 days) is “no significant toxicity”. For the same molecule, the “bacteria in wound tissue (Gram staining)” value with P. aeruginosa PAO1 (8th day) was “large number of bacteria”. In addition, the “bacteria remained live in the infection sites” value in the series on P. aeruginosa PAO1 (8th day, CFU) is given as “approximately 70%”.
On to `CC1(C)S[C@@H]2[C@H](NC(=O)C(C(=O)O)c3ccccc3)C(=O)N2[C@H]1C(=O)O` (some centres unmarked) [Carbenicillin], for which the MIC in series [1] is 6.25 µM (≈ 2.37 µg/mL); in series [2] (setting [7]) it was over 100 µM; against Escherichia coli MG16552 it was 25 µM (≈ 9.46 µg/mL); in [3], over 100 µM.
Consider `O=C(O)c1cn(C2CC2)c2cc(N3CCNCC3)c(F)cc2c1=O` [Ciprofloxacin, ciprofloxacin], for which the MIC in series [1] is under 1.56 µM; in series [2] (setting [7]) it was under 1.56 µM; with Escherichia coli MG16552 it was under 1.56 µM; in series [3], 25 µM (≈ 8.28 µg/mL). Moreover, in the series on P. aeruginosa [6], the “increase of MIC values” came out at 30 times.
Consider `NC[C@H]1O[C@H](O[C@H]2[C@H](O)[C@@H](O[C@H]3O[C@H](CO)[C@@H](O)[C@H](N)[C@H]3O)[C@H](N)C[C@@H]2N)[C@H](N)C[C@@H]1O` [Tobramycin, tobramycin], for which the minimum inhibitory concentration (MIC) is 25 µM (≈ 11.7 µg/mL) in [1], 12.5 µM (≈ 5.84 µg/mL) in [2] (setting [7]), 50 µM (≈ 23.4 µg/mL) against Escherichia coli MG16552 and over 100 µM in series [3]. Besides, the “increase of MIC values” in the series with P. aeruginosa [6] came out at 30 times.
Consider polymyxin B, for which the minimum inhibitory concentration (MIC) is over 100 µM in series [1], under 1.56 µM in series [2] (setting [7]), under 1.56 µM against Escherichia coli MG16552 and over 100 µM in series [3]. For the same molecule, in the series with P. aeruginosa [4] (5 μM), the “bacterial fluorescence signal compared with the control group” value is given as “remarkably increased”.

The values above are taken from paper PMC9096233, “Identification of an Au(I) N-Heterocyclic Carbene Compound as a Bactericidal Agent Against Pseudomonas aeruginosa” (Frontiers in Chemistry, 2022).
